This assay addresses T1, purified recombinant human caspase-3 (Homo sapiens, UniProt P42574).
T1 construct: Active site shared between large and small caspase subunit
T1 sequence (P42574 29-175 limits assumed): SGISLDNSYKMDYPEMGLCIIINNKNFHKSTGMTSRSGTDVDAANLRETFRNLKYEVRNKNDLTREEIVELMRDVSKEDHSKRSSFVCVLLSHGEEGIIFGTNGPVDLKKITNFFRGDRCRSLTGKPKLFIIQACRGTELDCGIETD
T1 sequence (P42574 176-277 limits assumed): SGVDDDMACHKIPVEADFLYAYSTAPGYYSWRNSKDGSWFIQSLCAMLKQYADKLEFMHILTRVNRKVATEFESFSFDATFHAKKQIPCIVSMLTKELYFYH
Put plainly: Direct [125I]-M808 labeling of purified recombinant human caspase-3. The class given is binding. To be noted: FIG. 2A lane 1. The protocol:
The determination of caspase activity by [^125I]-M808 labeling was performed by pre-incubating purified recombinant human caspase-3 with indicated amounts of caspase inhibitor (M791) or vehicle (DMSO), for 1 hour at 25° C. in ICE buffer III (50 mM Hepes-KOH pH 7.0, 0.1% CHAPS, 10% sucrose, 2 mM EDTA), supplemented with 5 mM DTT. [^125I]-M808 was added to a final concentration of 1.25 μM and incubated for 5 min at 25° C. Active caspases in tissue or cell extracts were labeled by incubating 60-80 μg of lysate with [^125I]-M808 for 15 minutes at 25° C. Labeling was stopped by addition of Laemli buffer (2% SDS; 0.35 M O-mercaptoethanol; 50 mM Tris-Cl pH 6.8; 10% glycerol; 0.05% bromophenol blue) and by heating at 95° C. for 5 minutes. Caspase labeling in whole cells was performed as following. NT2 cells were plated in 24-well dishes (50 000 cells/well) in DMEM+10% FBS. The next day, media was replaced by media containing camptothecin (5 μg/ml) and the indicated amounts of caspase inhibitors. The culture media was removed after 5 hours of incubation and replaced by 100 μl of fresh media containing 12.5 nM [^125]-M808. After a 1 h incubation at 37° C., the media was removed, the cells were washed once with PBS and lysed in lysis buffer+25 μM M808. Cellular debris was removed by centrifugation at 13000 rpm for 10 min and boiled at 95° C. in Laemli buffer. […]

This note sets out measurements from patent US20060069038A1, “Irreversible caspase-3 inhibitors as active site probes” (priority 2003, published 2006).

Each structure is given as a SMILES string.

Take `COc1ccc(I)cc1CC(=O)N[C@H](C(=O)NC(CC(=O)O)C(=O)CF)C(C)C` (stereo partly drawn) [[^125I]-M808, 5-fluoro-3-({N-[(5-iodo-2-methoxyphenyl)acetyl]-L-valyl}amino)-4-oxopentanoic acid]: the “labeling of p17 subunit of caspase-3” value is on record as “covalently bound”.
